Test system: anticorps anti-nef
Assay: ELISA for detection of anti-nef antibodies on coated peptides or nef
Type: binding, humain
Conditions: for nombre de sérums anti-nef positifs ayant réagi: ELISA, out of 31 anti-nef positive sera; for intensité de l'immunoréactivité (OD), Serum 1: Serum 1, anti-nef positive; for intensité de l'immunoréactivité (OD), Serum 1 / intensité de l'immunoréactivité (OD), Serum 2 / intensité de l'immunoréactivité (OD), Serum 3 / intensité de l'immunoréactivité (OD), Serum 4 / intensité de l'immunoréactivité (OD), Serum 5 / intensité de l'immunoréactivité (OD), Serum 6 / intensité de l'immunoréactivité (OD), Serum 7 / intensité de l'immunoréactivité (OD), Serum 8 / intensité de l'immunoréactivité (OD), Serum 9 / intensité de l'immunoréactivité (OD), Serum 10 / intensité de l'immunoréactivité (OD), Serum 11 / intensité de l'immunoréactivité (OD), Serum 12 / intensité de l'immunoréactivité (OD), Serum 13 / intensité de l'immunoréactivité (OD), Serum 14 / intensité de l'immunoréactivité (OD), Serum 15 / intensité de l'immunoréactivité (OD), Serum 16 / intensité de l'immunoréactivité (OD), Serum 17 / intensité de l'immunoréactivité (OD), Serum 18 / intensité de l'immunoréactivité (OD), Serum 19 / intensité de l'immunoréactivité (OD), Serum 20 / intensité de l'immunoréactivité (OD), Serum 21 / intensité de l'immunoréactivité (OD), Serum 22 / intensité de l'immunoréactivité (OD), Serum 23 / intensité de l'immunoréactivité (OD), Serum 24 / intensité de l'immunoréactivité (OD), Serum 25 / intensité de l'immunoréactivité (OD), Serum 26 / intensité de l'immunoréactivité (OD), Serum 27 / intensité de l'immunoréactivité (OD), Serum 28 / intensité de l'immunoréactivité (OD), Serum 29 / intensité de l'immunoréactivité (OD), Serum 30 / intensité de l'immunoréactivité (OD), Serum 31 / intensité de l'immunoréactivité (OD), Serum 32 / intensité de l'immunoréactivité (OD), Serum 33: 500 ng coated per well; for intensité de l'immunoréactivité (OD), Serum 2: Serum 2, anti-nef positive; for intensité de l'immunoréactivité (OD), Serum 3: Serum 3, anti-nef positive; for intensité de l'immunoréactivité (OD), Serum 4: Serum 4, anti-nef positive; for intensité de l'immunoréactivité (OD), Serum 5: Serum 5, anti-nef positive; for intensité de l'immunoréactivité (OD), Serum 6: Serum 6, anti-nef positive; for intensité de l'immunoréactivité (OD), Serum 7: Serum 7, anti-nef positive; for intensité de l'immunoréactivité (OD), Serum 8: Serum 8, anti-nef positive; for intensité de l'immunoréactivité (OD), Serum 9: Serum 9, anti-nef positive; for intensité de l'immunoréactivité (OD), Serum 10: Serum 10, anti-nef positive; for intensité de l'immunoréactivité (OD), Serum 11: Serum 11, anti-nef positive; for intensité de l'immunoréactivité (OD), Serum 12: Serum 12, anti-nef positive; for intensité de l'immunoréactivité (OD), Serum 13: Serum 13, anti-nef positive; for intensité de l'immunoréactivité (OD), Serum 14: Serum 14, anti-nef positive; for intensité de l'immunoréactivité (OD), Serum 15: Serum 15, anti-nef positive; for intensité de l'immunoréactivité (OD), Serum 16: Serum 16, anti-nef positive; for intensité de l'immunoréactivité (OD), Serum 17: Serum 17, anti-nef positive; for intensité de l'immunoréactivité (OD), Serum 18: Serum 18, anti-nef positive; for intensité de l'immunoréactivité (OD), Serum 19: Serum 19, anti-nef positive; for intensité de l'immunoréactivité (OD), Serum 20: Serum 20, anti-nef positive; for intensité de l'immunoréactivité (OD), Serum 21: Serum 21, anti-nef positive; for intensité de l'immunoréactivité (OD), Serum 22: Serum 22, anti-nef positive; for intensité de l'immunoréactivité (OD), Serum 23: Serum 23, anti-nef positive; for intensité de l'immunoréactivité (OD), Serum 24: Serum 24, anti-nef positive; for intensité de l'immunoréactivité (OD), Serum 25: Serum 25, anti-nef positive; for intensité de l'immunoréactivité (OD), Serum 26: Serum 26, anti-nef positive; for intensité de l'immunoréactivité (OD), Serum 27: Serum 27, anti-nef positive; for intensité de l'immunoréactivité (OD), Serum 28: Serum 28, anti-nef positive; for intensité de l'immunoréactivité (OD), Serum 29: Serum 29, anti-nef positive; for intensité de l'immunoréactivité (OD), Serum 30: Serum 30, anti-nef positive; for intensité de l'immunoréactivité (OD), Serum 31: Serum 31, anti-nef positive; for intensité de l'immunoréactivité (OD), Serum 32: Serum 32, anti-nef negative control serum; for intensité de l'immunoréactivité (OD), Serum 33: Serum 33, anti-nef negative control serum
Description: Des plaques de microtitration à 96 puits ont été recouvertes une nuit avec 500 ng de protéine nef bactérienne, à 37°C ou avec 500 ng de peptides synthétiques par puits dans 50µl de PBS à pH 7,4. Après saturation avec 400 µl de PBS pH 7,4, contenant 5% de caséine, durant 1 heure à 37°C et lavage avec PBS à pH 7,4, 0,5% de BSA, 0,01% tween, 50 µl de sérums à différentes dilutions ont été ajoutés pendant 2 heures à 37°C. Après le rinçage, 50µl de complexes d'IgG de souris anti-humaine-(H + L)-peroxydase 1:1000 ont été incubés pendant 1 heure à 37°C. Après un nouveau rinçage, 100µl de OPD ont été ajoutés pendant 30mn à température ambiante dans l'obscurité. La réaction de l'enzyme a été arrêtée par addition de 50µl d'acide sulfurique 4N et la densité optique des plaques a été lue à 492 nm/620 nm. Les plaques recouvertes avec la caséine ont été utilisées comme contrôle négatif.
En vue d'étudier la possibilité d'utiliser des peptides synthétiques en tant qu'antigènes pour la détection d'anticorps anti-nef chez des patients infectés par HIV, 8 peptides synthétiques couvrant la totalité de la séquence de la protéine nef de HIV-1 (figure 4) ont été utilisés dans un test ELISA avec 31 sérums anti-nef positifs et 2 sérums anti-nef négatifs utilisés comme contrôle. Les recombinants nef ont été utilisés comme contrôle positif dans les tests ELISA et la caséine a été utilisée comme contrôle négatif. Les résultats de ces expériences sont donnés dans le tableau 4 qui illustre l'essai suivant: Essai ELISA sur 31 sérums anti-nef-positifs et 2 sérums anti-nef- négatifs, soit pré-recouverts avec des peptides synthétiques (PF 11 à PF 18), soit en utilisant nef, la caséine ou un mélange de peptides PF 12 et PF 17. Les sérums ont été sélectionnés au hasard parmi des sérums anti-nef positifs et anti-nefs négatifs testés par la méthode RIA en utilisant ¹²⁵I nef. L'intensité de l'immunoradioactivité est notée "-" pour une densité optique (OD) inférieure à 0,2; "+" pour OD = 0,2 à 0,4; "++" pour OD = 0,4 à 0,8 et "+++" pour OD = 0,8 à 2,0.

Sequence: XCVGFPVTPQVPLRPMTYKAAVDLSHFLKEKGGLEGLIHSQRRQDILZ [PF14]
- nombre de sérums anti-nef positifs ayant réagi: 3
- intensité de l'immunoréactivité (OD), Serum 1: - (pour une densité optique (OD) inférieure à 0,2)
- intensité de l'immunoréactivité (OD), Serum 2: - (pour une densité optique (OD) inférieure à 0,2)
- intensité de l'immunoréactivité (OD), Serum 3: +++ (pour OD = 0,8 à 2,0)
- intensité de l'immunoréactivité (OD), Serum 4: - (pour une densité optique (OD) inférieure à 0,2)
- intensité de l'immunoréactivité (OD), Serum 5: - (pour une densité optique (OD) inférieure à 0,2)
- intensité de l'immunoréactivité (OD), Serum 6: - (pour une densité optique (OD) inférieure à 0,2)
- intensité de l'immunoréactivité (OD), Serum 7: - (pour une densité optique (OD) inférieure à 0,2)
- intensité de l'immunoréactivité (OD), Serum 8: - (pour une densité optique (OD) inférieure à 0,2)
- intensité de l'immunoréactivité (OD), Serum 9: - (pour une densité optique (OD) inférieure à 0,2)
- intensité de l'immunoréactivité (OD), Serum 10: - (pour une densité optique (OD) inférieure à 0,2)
- intensité de l'immunoréactivité (OD), Serum 11: - (pour une densité optique (OD) inférieure à 0,2)
- intensité de l'immunoréactivité (OD), Serum 12: - (pour une densité optique (OD) inférieure à 0,2)
- intensité de l'immunoréactivité (OD), Serum 13: - (pour une densité optique (OD) inférieure à 0,2)
- intensité de l'immunoréactivité (OD), Serum 14: ++ (pour OD = 0,4 à 0,8)
- intensité de l'immunoréactivité (OD), Serum 15: - (pour une densité optique (OD) inférieure à 0,2)
- intensité de l'immunoréactivité (OD), Serum 16: - (pour une densité optique (OD) inférieure à 0,2)
- intensité de l'immunoréactivité (OD), Serum 17: - (pour une densité optique (OD) inférieure à 0,2)
- intensité de l'immunoréactivité (OD), Serum 18: - (pour une densité optique (OD) inférieure à 0,2)
- intensité de l'immunoréactivité (OD), Serum 19: - (pour une densité optique (OD) inférieure à 0,2)
- intensité de l'immunoréactivité (OD), Serum 20: - (pour une densité optique (OD) inférieure à 0,2)
- intensité de l'immunoréactivité (OD), Serum 21: ++ (pour OD = 0,4 à 0,8)
- intensité de l'immunoréactivité (OD), Serum 22: - (pour une densité optique (OD) inférieure à 0,2)
- intensité de l'immunoréactivité (OD), Serum 23: - (pour une densité optique (OD) inférieure à 0,2)
- intensité de l'immunoréactivité (OD), Serum 24: - (pour une densité optique (OD) inférieure à 0,2)
- intensité de l'immunoréactivité (OD), Serum 25: - (pour une densité optique (OD) inférieure à 0,2)
- intensité de l'immunoréactivité (OD), Serum 26: - (pour une densité optique (OD) inférieure à 0,2)
- intensité de l'immunoréactivité (OD), Serum 27: - (pour une densité optique (OD) inférieure à 0,2)
- intensité de l'immunoréactivité (OD), Serum 28: - (pour une densité optique (OD) inférieure à 0,2)
- intensité de l'immunoréactivité (OD), Serum 29: - (pour une densité optique (OD) inférieure à 0,2)
- intensité de l'immunoréactivité (OD), Serum 30: - (pour une densité optique (OD) inférieure à 0,2)
- intensité de l'immunoréactivité (OD), Serum 31: - (pour une densité optique (OD) inférieure à 0,2)
- intensité de l'immunoréactivité (OD), Serum 32: - (pour une densité optique (OD) inférieure à 0,2)
- intensité de l'immunoréactivité (OD), Serum 33: - (pour une densité optique (OD) inférieure à 0,2)

Sequence: XGGKWSKSSVVGWPTVRERMRRAEPAADGVGAASRDLEKHGAITSSNTA ATNAACAWLEAQEEEEVGZ [PF12, protéine F HIV-1, séquence 1-66]
- nombre de sérums anti-nef positifs ayant réagi: 16
- intensité de l'immunoréactivité (OD), Serum 1: + (pour OD = 0,2 à 0,4)
- intensité de l'immunoréactivité (OD), Serum 2: - (pour une densité optique (OD) inférieure à 0,2)
- intensité de l'immunoréactivité (OD), Serum 3: +++ (pour OD = 0,8 à 2,0)
- intensité de l'immunoréactivité (OD), Serum 4: + (pour OD = 0,2 à 0,4)
- intensité de l'immunoréactivité (OD), Serum 5: - (pour une densité optique (OD) inférieure à 0,2)
- intensité de l'immunoréactivité (OD), Serum 6: - (pour une densité optique (OD) inférieure à 0,2)
- intensité de l'immunoréactivité (OD), Serum 7: +++ (pour OD = 0,8 à 2,0)
- intensité de l'immunoréactivité (OD), Serum 8: +++ (pour OD = 0,8 à 2,0)
- intensité de l'immunoréactivité (OD), Serum 9: +++ (pour OD = 0,8 à 2,0)
- intensité de l'immunoréactivité (OD), Serum 10: - (pour une densité optique (OD) inférieure à 0,2)
- intensité de l'immunoréactivité (OD), Serum 11: ++ (pour OD = 0,4 à 0,8)
- intensité de l'immunoréactivité (OD), Serum 12: ++ (pour OD = 0,4 à 0,8)
- intensité de l'immunoréactivité (OD), Serum 13: - (pour une densité optique (OD) inférieure à 0,2)
- intensité de l'immunoréactivité (OD), Serum 14: ++ (pour OD = 0,4 à 0,8)
- intensité de l'immunoréactivité (OD), Serum 15: - (pour une densité optique (OD) inférieure à 0,2)
- intensité de l'immunoréactivité (OD), Serum 16: - (pour une densité optique (OD) inférieure à 0,2)
- intensité de l'immunoréactivité (OD), Serum 17: - (pour une densité optique (OD) inférieure à 0,2)
- intensité de l'immunoréactivité (OD), Serum 18: - (pour une densité optique (OD) inférieure à 0,2)
- intensité de l'immunoréactivité (OD), Serum 19: +++ (pour OD = 0,8 à 2,0)
- intensité de l'immunoréactivité (OD), Serum 20: - (pour une densité optique (OD) inférieure à 0,2)
- intensité de l'immunoréactivité (OD), Serum 21: ++ (pour OD = 0,4 à 0,8)
- intensité de l'immunoréactivité (OD), Serum 22: - (pour une densité optique (OD) inférieure à 0,2)
- intensité de l'immunoréactivité (OD), Serum 23: - (pour une densité optique (OD) inférieure à 0,2)
- intensité de l'immunoréactivité (OD), Serum 24: - (pour une densité optique (OD) inférieure à 0,2)
- intensité de l'immunoréactivité (OD), Serum 25: +++ (pour OD = 0,8 à 2,0)
- intensité de l'immunoréactivité (OD), Serum 26: +++ (pour OD = 0,8 à 2,0)
- intensité de l'immunoréactivité (OD), Serum 27: - (pour une densité optique (OD) inférieure à 0,2)
- intensité de l'immunoréactivité (OD), Serum 28: + (pour OD = 0,2 à 0,4)
- intensité de l'immunoréactivité (OD), Serum 29: ++ (pour OD = 0,4 à 0,8)
- intensité de l'immunoréactivité (OD), Serum 30: - (pour une densité optique (OD) inférieure à 0,2)
- intensité de l'immunoréactivité (OD), Serum 31: +++ (pour OD = 0,8 à 2,0)
- intensité de l'immunoréactivité (OD), Serum 32: - (pour une densité optique (OD) inférieure à 0,2)
- intensité de l'immunoréactivité (OD), Serum 33: - (pour une densité optique (OD) inférieure à 0,2)
